In general, EC50 refers to the concentration giving half of the maximal effect.

*1 amine or outer side, *2 acyl side, *3 side chain or, on linkers, in order; H or OH if unused. Where a SMILES comes first, the peptide text is derived from it. Side-chain parts run from the residue outwards. [ ]: non-standard residue; d: D form. The star is where a group is joined. γGlu = O=C(O)[C@H](CCC(=O)[*:2])N[*:1]; Stearoyl = CCCCCCCCCCCCCCCCCC(=O)*; Nle = CCCC[C@H](N)C(=O)O; AEEA = NCCOCCOCC(=O)O; Aib = CC(C)(N)C(=O)O

Test [1] deals with T1, RXFP1 (Homo sapiens, UniProt Q9HBX9).
T1 sequence (Q9HBX9 1-757): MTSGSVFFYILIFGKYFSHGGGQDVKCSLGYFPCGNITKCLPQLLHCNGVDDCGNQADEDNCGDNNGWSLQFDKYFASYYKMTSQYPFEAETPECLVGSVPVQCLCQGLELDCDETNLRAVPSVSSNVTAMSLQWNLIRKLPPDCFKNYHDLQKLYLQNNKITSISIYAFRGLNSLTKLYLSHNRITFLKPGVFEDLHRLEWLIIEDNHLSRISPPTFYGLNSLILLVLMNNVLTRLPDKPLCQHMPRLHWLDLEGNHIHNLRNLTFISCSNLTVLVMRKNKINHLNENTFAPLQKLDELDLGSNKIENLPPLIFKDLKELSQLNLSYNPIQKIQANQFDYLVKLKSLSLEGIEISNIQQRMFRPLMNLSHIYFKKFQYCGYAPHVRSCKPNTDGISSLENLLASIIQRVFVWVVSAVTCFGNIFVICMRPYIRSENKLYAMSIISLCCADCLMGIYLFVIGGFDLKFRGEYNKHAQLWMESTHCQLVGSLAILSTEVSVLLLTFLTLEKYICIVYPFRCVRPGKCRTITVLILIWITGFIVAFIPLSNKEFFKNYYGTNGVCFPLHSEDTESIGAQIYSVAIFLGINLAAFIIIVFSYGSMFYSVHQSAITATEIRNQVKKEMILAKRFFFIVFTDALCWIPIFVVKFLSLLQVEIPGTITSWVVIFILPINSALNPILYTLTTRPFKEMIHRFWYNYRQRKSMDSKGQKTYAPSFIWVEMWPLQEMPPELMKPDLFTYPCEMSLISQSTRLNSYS
The test can be described thus: Phospho-VASP (Ser157) MSD assay in EA.hy926_RXFP1 cells. It is filed as cell-based. Also noted: expressed in transfected cells; host or cells: EA.hy926 (ATCC CRL-2922), lentiviral transduction, puromycin selection. Particulars: serum-free DMEM, 20 min 37 °C, n = 3, read-out: EC50 [CI95%] VASP phosphorylation on S157. The method, then: These experiments were conducted according to the MSD protocol (K151FFD-2) and using a Sector 2400 from Mesoscale Discovery. In order to reduce the basal phosphorylation activity of VASP protein, EA.hy926_RXFP1 cells were stimulated with effector solutions in basal DMEM (i.e., without serum). Cells were plated in 96-well plate at a density of 35.000 cells/well overnight in a volume of 200µL of cell culture media. Prior to stimulation, growth medium was discarded, and the cells were washed one time with basal DMEM medium, before being incubated for 4 h with basal DMEM medium at 37 °C in 5% CO2. […] For control cells, 50µL of basal DMEM medium without effector standard solution were added onto the cells. The microplates were incubated for 20 min at 37 °C in 5% CO2. All the following steps were carried-out on ice. Medium was aspirated and the cells were directly lysed by addition of 50μL of complete lysis buffer/well (lysis buffer is provided in the pVASP assay kit and prepared according to MSD instructions). The microplates were placed for 60 min under orbital agitation. The cell lysates were collected in round bottom microplate then stored at − 80 °C until pVASP content determination according to MSD protocol.

The next test deals with wild type EA.hy926 cells. The test can be described thus: xCELLigence real time impedance in wild type EA.hy926 cells. It is filed as cell-based, human. The method, then: (§1) Cell impedance assays in both wild type EA.hy926 and EA.hy926_RXFP1 cell lines were performed using a MP RCTA xCELLigence Analyzer (ACEA Biosciences) on E-Plates. 20,000 cells/well were seeded in E-plates in 200 µL of growth medium and left to settle for 30 min at room temperature. Plates were then placed into the xCELLigence RTCA MP Instrument under 5% CO2 at 37 °C and impedance was continuously measured every 15 min overnight. The next day, a 4-h serum starvation was performed using the same medium but with 0.1% FCS (impedance measurement every 5 min).
(§2) Data analysis was performed using RTCA2.0 software according to ACEA recommendations. Raw impedance expressed as cell index was normalized for each well by dividing individual Cell Index values by baseline Cell index values obtained 5 min before peptide treatment in order to obtain Normalized Cell Index (NCI): mean NCI from 4 replicates for each condition are presented.

Test [2] deals with T1, RXFP1. The test can be described thus: xCELLigence real time impedance in EA.hy926_RXFP1 cells. The following applies: 10 nM, over 10 h. It is filed as cell-based. The arrangement: expressed in transfected cells; host or cells: EA.hy926 (ATCC CRL-2922), lentiviral transduction, puromycin selection. The method, then:
as §1, §2

Test [3] deals with T2, RXFP1 (Rattus norvegicus, UniProt Q6R6I6).
T2 construct: measured in conscious telemetered SD rats; tissue Charles River Laboratories; host or cells: whole animal, male Sprague Dawley rats (heart; renal vasculature)
T2 sequence (Q6R6I6 1-758): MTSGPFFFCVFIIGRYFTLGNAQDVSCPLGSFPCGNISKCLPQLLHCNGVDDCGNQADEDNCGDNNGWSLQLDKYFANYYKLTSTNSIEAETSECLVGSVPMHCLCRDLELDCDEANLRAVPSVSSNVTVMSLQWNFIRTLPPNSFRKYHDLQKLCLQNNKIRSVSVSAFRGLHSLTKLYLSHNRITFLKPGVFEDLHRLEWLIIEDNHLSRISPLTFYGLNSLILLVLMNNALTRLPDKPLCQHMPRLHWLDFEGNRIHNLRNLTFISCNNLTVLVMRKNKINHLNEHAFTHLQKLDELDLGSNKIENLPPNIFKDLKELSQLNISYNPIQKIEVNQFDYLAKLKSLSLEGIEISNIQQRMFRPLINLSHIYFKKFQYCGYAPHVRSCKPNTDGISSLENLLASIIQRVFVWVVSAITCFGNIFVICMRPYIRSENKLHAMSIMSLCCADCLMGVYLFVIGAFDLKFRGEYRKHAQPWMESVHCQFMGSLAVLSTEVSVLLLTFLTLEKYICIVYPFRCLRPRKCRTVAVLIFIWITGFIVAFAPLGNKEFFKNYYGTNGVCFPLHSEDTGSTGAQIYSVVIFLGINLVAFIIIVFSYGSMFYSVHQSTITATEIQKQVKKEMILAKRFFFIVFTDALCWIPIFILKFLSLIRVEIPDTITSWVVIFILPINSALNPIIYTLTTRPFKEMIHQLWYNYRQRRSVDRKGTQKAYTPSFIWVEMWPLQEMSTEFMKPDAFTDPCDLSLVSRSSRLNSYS
The test can be described thus: Telemetry (heart rate) in conscious SD rats. The following applies: conscious telemetered SD rats, single iv relaxin 1, 3 and 10 µg/kg, n = 5/group. In kind it is in vivo.

Test [4] has as its target T1, RXFP1. The test can be described thus: cAMP production in HEK_RXFP1 cells. It is filed as cell-based. Also noted: expressed in transfected cells. Particulars: HEK_RXFP1 cells (wild type construct), n = 4 experiments in duplicate. Background: Cyclic AMP is a second messenger, typically raised through Gs and lowered through Gi signalling.

Consider `CCCCCCCCCCCCCCCCCC(=O)N[C@@H](CCC(=O)N[C@@H](CCC(=O)N[C@@H](CCC(=O)NCCOCCOCC(=O)NCCOCCOCC(=O)NCCOCCOCC(=O)NCCCC[C@H](NC(=O)[C@H](CCCCNC(C)=O)NC(=O)[C@H](CCCCN)NC(=O)[C@H](CCCNC(=N)N)NC(=O)C(C)(C)NC(=O)[C@H](CO)NC(=O)[C@H](Cc1c[nH]c2ccccc12)NC(=O)[C@@H](NC(=O)[C@H](CO)NC(=O)[C@H](CCCC)NC(=O)CNC(=O)[C@H](CCC(=O)O)NC(=O)C(C)(C)NC(=O)C(C)(C)NC(=O)[C@@H](NC(=O)[C@H](CCCCNC(C)=O)NC(=O)[C@H](C)NC(=O)[C@H](CCCNC(=N)N)NC(=O)[C@@H](NC(=O)[C@H](CCCCN)NC(=O)[C@H](CCC(=O)O)NC(=O)[C@H](CCCNC(=N)N)NC(=O)CNC(=O)[C@H](CCC(=O)O)NC(=O)[C@H](CC(C)C)NC(C)=O)C(C)C)[C@@H](C)CC)[C@@H](C)O)C(N)=O)C(=O)O)C(=O)O)C(=O)O` [SA10SC-RLX] (Ac-LEGREKVRAK(Ac)I[Aib][Aib]EG[Nle]STWS[Aib]RKK(Ac)K([AEEA-AEEA-AEEA-γGlu-γGlu-γGlu-Stearoyl])-NH2), for which the EC50 on RXFP1 [1] worked out at 0.19 nM.
With relaxin, the impedance response result in the test with wild type EA.hy926 cells was “Neither relaxin nor SA10SC-RLX induced a response”. Moreover, the “kinetics and shape of the RXFP1 activation signal (impedance)” value at RXFP1 [2] is “superimposable responses”. Besides, the “duration of the heart rate effect” value at RXFP1 [3] fell in the range of 4 to 6 h. For the same compound, the cAMP activity result at RXFP1 [4] is recorded as “activity was in the same range”.
